The results in this text go back to ChEMBL document CHEMBL1201862, “PubChem BioAssay data set” (2004).

Test systems include 786-0; BT-549; CAKI-1; EKVX; HCT-15; K562; LOX IMVI; MCF7; MDA-N; NCI/ADR-RES; OVCAR-5; RPMI-8226; SF-268; SK-MEL-2; SNB-19; U-251; UACC-62; CCRF-CEM; MOLT-4.
Experiment in all cases: NCI-60 cell line screen, 48 h

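Method: 48-hour compound exposure of cells in 96-well plates, five concentrations, linear interpolation of endpoints. GI50 is the concentration that inhibits growth by half.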 Calls of active or inactive are those of the source. Cut-off read from the data, not from the text of the source: active = GI50 up to about 1.1 µM and inactive = higher. Bounds are passed on as bounds.

Consider `Nc1nc(O)c2nc3c(nc2n1)C(=O)N(c1ccc(C(=O)O)cc1)C3`, for which the GI50 in the assay with 786-0 was > 100 µM (inactive); with BT-549 it was > 100 µM (inactive); in the assay with CAKI-1 it was > 100 µM (inactive); in the assay with EKVX it was > 100 µM (inactive); with HCT-15, more than 100 µM; in the assay on K562 it was > 100 µM (inactive). Moreover, the GI50 with LOX IMVI, with MCF7, in the assay on MDA-N, with NCI/ADR-RES, in the assay on OVCAR-5 and in the assay with RPMI-8226 was > 100 µM (inactive) each time. Also, the GI50 in the assay on SF-268, in the assay on SK-MEL-2, in the assay with SNB-19, with U-251 and with UACC-62 was > 100 µM (inactive) in each case.
Take `Cc1c2c3cc(O)ccc3nc-2n(C)c2ccccc12`: the GI50 is 0.53 µM (active) with 786-0; 1.92 µM (inactive) in the assay with BT-549; 0.743 µM (active) with CCRF-CEM; 2.58 µM (inactive) in the assay with EKVX; 1.81 µM in the assay on HCT-15; 0.818 µM (active) in the assay on K562. Further, the GI50 in the assay with MCF7 is 2.21 µM (inactive); in the assay on MDA-N, 2.07 µM (inactive); in the assay with MOLT-4 it was 0.399 µM (active); with NCI/ADR-RES it was 0.957 µM (active); in the assay on OVCAR-5 it was 3.3 µM (inactive); in the assay with RPMI-8226, 2.34 µM (inactive). The GI50 in the assay on SF-268 was 1.62 µM (inactive); with SNB-19, 1.83 µM (inactive); with U-251 it was 0.838 µM (active); in the assay on UACC-62, 1.39 µM (inactive).
On to `C[Si](C)(C)OC1c2[nH]c3ccccc3c2CN2C(=O)CCC12` (stereo not drawn), for which the GI50 in the assay with 786-0 is > 100 µM (inactive); in the assay on BT-549, > 100 µM (inactive); in the assay with CAKI-1 it was > 100 µM (inactive); in the assay on EKVX it was > 100 µM (inactive); in the assay with HCT-15, more than 100 µM; in the assay with K562 it was > 100 µM (inactive). Further, the GI50 with LOX IMVI, with MCF7, in the assay on MDA-N, in the assay on MOLT-4, in the assay with NCI/ADR-RES and with OVCAR-5 was > 100 µM (inactive) each time. Besides, the GI50 in the assay with RPMI-8226, in the assay with SF-268, in the assay on SK-MEL-2, in the assay on SNB-19, with U-251 and in the assay with UACC-62 was > 100 µM (inactive) each time.
Take `CN(C)C(=N)/N=C(\N)Nc1cccc(Cl)c1`: the GI50 was > 100 µM (inactive) in the assay with 786-0; 19.5 µM (inactive) in the assay on BT-549; 48.2 µM (inactive) in the assay with CAKI-1; > 100 µM (inactive) in the assay on EKVX; more than 100 µM in the assay on HCT-15; > 100 µM (inactive) in the assay with K562. In addition, the GI50 in the assay with LOX IMVI is 35.9 µM (inactive); with MCF7, 90.8 µM (inactive); in the assay with MDA-N, 83.9 µM (inactive); with MOLT-4 it was > 100 µM (inactive); with NCI/ADR-RES, > 100 µM (inactive); in the assay on OVCAR-5, > 100 µM (inactive). Moreover, the GI50 in the assay on RPMI-8226 is > 100 µM (inactive); with SF-268 it was 35.4 µM (inactive); with SK-MEL-2, > 100 µM (inactive); in the assay with SNB-19, > 100 µM (inactive); in the assay with U-251, > 100 µM (inactive); in the assay with UACC-62 it was 89.1 µM (inactive).
Take `CCOP(=O)(OCC)C(C(=O)OC)C(=O)C(=O)Nc1cccc(O)c1` (stereo not drawn): the GI50 in the assay on 786-0 was > 100 µM (inactive); in the assay on BT-549 it was > 100 µM (inactive); with CAKI-1, > 100 µM (inactive); in the assay on CCRF-CEM, > 100 µM (inactive); in the assay with EKVX it was > 100 µM (inactive); with HCT-15, more than 100 µM. Moreover, the GI50 in the assay with LOX IMVI, with MCF7, with MDA-N, with MOLT-4, in the assay with NCI/ADR-RES and in the assay with OVCAR-5 was > 100 µM (inactive) each time. Moreover, the GI50 in the assay on SF-268, with SK-MEL-2, in the assay with SNB-19, in the assay with U-251 and in the assay with UACC-62 was > 100 µM (inactive) throughout.
In the case of `Sc1nnc(NNc2ccccc2)n1Nc1ccccc1`, the GI50 in the assay on 786-0 was > 71 µM (inactive); in the assay on BT-549 it was 8.69 µM (inactive); in the assay with CAKI-1, > 36.9 µM (inactive); with CCRF-CEM, 8.97 µM (inactive); with EKVX, > 87.3 µM (inactive); in the assay with HCT-15, 2.1 µM. For the same compound, the GI50 in the assay with K562 was 0.0213 µM (active); in the assay on MCF7 it was 0.508 µM (active); in the assay on MDA-N it was 2.05 µM (inactive); in the assay on MOLT-4, 0.625 µM (active); in the assay on NCI/ADR-RES, 34.3 µM (inactive); in the assay on OVCAR-5 it was > 55.2 µM (inactive). Besides, the GI50 was 2.51 µM (inactive) with RPMI-8226; > 82.4 µM (inactive) in the assay on SF-268; > 75.9 µM (inactive) in the assay on SNB-19; 21.1 µM (inactive) in the assay with U-251; 0.0427 µM (active) with UACC-62.
With `N#CC(c1ccccc1)N(CCc1ccccc1)C(=O)c1ccc(C(=O)N(CCc2ccccc2)C(C#N)c2ccccc2)cc1` (stereo not drawn), the GI50 is 22.6 µM (inactive) with 786-0; 14.5 µM (inactive) in the assay on BT-549; 30.6 µM (inactive) in the assay with CAKI-1; 26.1 µM (inactive) in the assay on CCRF-CEM; 34.4 µM (inactive) in the assay with EKVX; 18.6 µM in the assay on HCT-15. Also, the GI50 with K562 is 20.9 µM (inactive); in the assay with LOX IMVI, 17.9 µM (inactive); with MCF7, 30.3 µM (inactive); in the assay on MDA-N, 24 µM (inactive); in the assay with MOLT-4, > 10 µM (inactive); in the assay with NCI/ADR-RES, 17.9 µM (inactive). For the same compound, the GI50 is 19.8 µM (inactive) with OVCAR-5; 22 µM (inactive) in the assay with SF-268; 19.6 µM (inactive) with SK-MEL-2; 30.5 µM (inactive) in the assay with SNB-19; 24.3 µM (inactive) in the assay on U-251; 15.5 µM (inactive) with UACC-62.
Take `COc1ccc(NC(=S)NC(=O)c2ccc3c(c2)Sc2ccccc2O3)c([N+](=O)[O-])c1`: the GI50 in the assay on 786-0 was 17.9 µM (inactive); with BT-549, 37.1 µM (inactive); in the assay on CAKI-1, 39.1 µM (inactive); in the assay on CCRF-CEM, 36.4 µM (inactive); in the assay with HCT-15, 24 µM; in the assay on K562, 64.1 µM (inactive). The GI50 in the assay on LOX IMVI was > 100 µM (inactive); with MCF7 it was 27.6 µM (inactive); in the assay with MDA-N it was 44.5 µM (inactive); in the assay on MOLT-4, 34.4 µM (inactive); with NCI/ADR-RES, 33.6 µM (inactive); with OVCAR-5 it was > 100 µM (inactive). Also, the GI50 in the assay on SF-268 is 19.4 µM (inactive); in the assay on SK-MEL-2, 28.6 µM (inactive); in the assay on SNB-19, 21.9 µM (inactive); in the assay with U-251, 20.2 µM (inactive); with UACC-62, 30.3 µM (inactive).
`O=C(N/N=C/c1ccccc1O)c1ccccc1Nc1ccccc1C(=O)N/N=C/c1ccccc1O`: the GI50 with 786-0 is 0.214 µM (active); in the assay with BT-549, 7.03 µM (inactive); in the assay with CAKI-1 it was 0.617 µM (active); in the assay with CCRF-CEM, 0.931 µM (active); with EKVX, 0.398 µM (active); in the assay on HCT-15 it was 0.329 µM. Further, the GI50 was 1 µM (active) in the assay on K562; 0.154 µM (active) in the assay with LOX IMVI; 0.583 µM (active) in the assay on MCF7; > 100 µM (inactive) with MDA-N; 0.102 µM (active) in the assay with MOLT-4; 1 µM (active) with NCI/ADR-RES. The GI50 was > 100 µM (inactive) in the assay on OVCAR-5; 0.255 µM (active) in the assay on SF-268; 3.41 µM (inactive) in the assay with SNB-19; 3.48 µM (inactive) in the assay on U-251; 1.05 µM (active) in the assay on UACC-62.
With `Nc1ncnc2oc(C3OC(COC(=O)c4ccccc4)C(OC(=O)c4ccccc4)C3OC(=O)c3ccccc3)nc12` (stereo not drawn), the GI50 was > 100 µM (inactive) in the assay with 786-0; > 100 µM (inactive) in the assay with BT-549; > 100 µM (inactive) in the assay with CAKI-1; > 100 µM (inactive) in the assay on CCRF-CEM; > 100 µM (inactive) in the assay on EKVX; more than 100 µM with HCT-15. For the same compound, the GI50 with K562, with LOX IMVI, in the assay with MCF7, with MDA-N, in the assay on MOLT-4 and with NCI/ADR-RES was > 100 µM (inactive) in each case. For the same compound, the GI50 was > 100 µM (inactive) with OVCAR-5; > 100 µM (inactive) in the assay on RPMI-8226; > 100 µM (inactive) with SF-268; > 100 µM (inactive) with SNB-19; > 100 µM (inactive) in the assay on U-251; 74.8 µM (inactive) in the assay with UACC-62.
As to `COc1cc2ccc1OCc1cccc(n1)COc1ccc(cc1OC)/C=N\CCNCC/N=C\2`, the GI50 in the assay with 786-0 was > 100 µM (inactive); with BT-549 it was 42.5 µM (inactive); in the assay with CAKI-1, > 100 µM (inactive); with EKVX it was > 100 µM (inactive); with HCT-15, more than 100 µM; in the assay on K562, > 100 µM (inactive). The GI50 in the assay on LOX IMVI, in the assay with MCF7, in the assay with MDA-N, in the assay with MOLT-4, in the assay with NCI/ADR-RES and in the assay with OVCAR-5 was > 100 µM (inactive) in each case. The GI50 was > 100 µM (inactive) with RPMI-8226; 80.9 µM (inactive) in the assay with SF-268; > 100 µM (inactive) in the assay on SK-MEL-2; > 100 µM (inactive) in the assay with SNB-19; 33.2 µM (inactive) in the assay on U-251.
Turning to `CN1c2ccccc2S(=O)(=O)n2c(CCc3ccccc3)nnc21`, the GI50 with 786-0 is 54.1 µM (inactive); in the assay with BT-549, > 100 µM (inactive); with CAKI-1, 44.1 µM (inactive); in the assay with CCRF-CEM, > 100 µM (inactive); in the assay on EKVX it was > 100 µM (inactive); in the assay with HCT-15, more than 100 µM. For the same compound, the GI50 with K562, with LOX IMVI, with MCF7, with MDA-N, in the assay with MOLT-4 and in the assay with NCI/ADR-RES was > 100 µM (inactive) throughout. In addition, the GI50 in the assay with OVCAR-5, in the assay on SF-268, in the assay with SK-MEL-2, with SNB-19, in the assay with U-251 and in the assay with UACC-62 was > 100 µM (inactive) each time.
